In patent EP1622888B1, “BENZO-, NAPHTHO- AND PHENANTHROCHROMENES SUBSTITUTED WITH AN ARYLAMINE GROUP WITH PHOTOCHROMIC PROPERTIES” (Corning Incorporated, priority 2003, dated 2004):

assay: Photochromic properties: UV-visible absorption of THF solutions before and after exposure to a UV source at 365 nm; type: physicochemical; conditions: 5 mg in 50 ml of THF, optical path of 1 cm, after exposure to a UV source at 365 nm
Procedure: The photochromic properties of said compounds (1) to (6) and (C1) to (C5) were evaluated.
Said compounds were dissolved, at the rate of 5 mg in 50 ml of THF, and the UV-visible absorptions (optical path of 1 cm) is then measured before and after exposure to a UV source at 365 nm. The observation of the tints and the intensities developed is done by placing the solutions in the sun or before a solar simulator.

Row | Compound | λMAX VIS: λ of the band of the lowest energy in the field of the visible spectrum of the compound after exposure | λVIS1: λ of the band of highest energy in the field of the visible spectrum of the compound after exposure
1 | COc1ccc2c3c(c4c(c2c1)OC(c1ccccc1)(c1ccc(N(C)C)c(-c2ccccc2)c1)C=C4)CCc1ccccc1-3 (centres unmarked) [(4)] | 562 nm | 469 nm
2 | COc1ccc(C2(c3ccc(N(C)C)c(C)c3)C=Cc3c4c(c5cc6c(cc5c3O2)OCC6)-c2ccccc2CC4)cc1 (centres unmarked) [(5)] | 563 nm | 444 nm
3 | COc1ccc2c3c(c4c(c2c1)OC(c1ccccc1)(c1ccc(N(C)C)c(C)c1)C=C4)CCc1ccccc1-3 (centres unmarked) [(3)] | 556 nm | 435 nm
4 | COc1cc2c3c(c4c(c2cc1OC)CCc1ccccc1-4)OC(c1ccccc1)(c1ccc(N(C)C)c(-c2ccccc2)c1)C=C3 (centres unmarked) [(2)] | 465 nm | –
5 | COc1cc2c3c(c4c(c2cc1OC)CCc1ccccc1-4)OC(c1ccccc1)(c1ccc(N(C)C)c(C)c1)C=C3 (centres unmarked) [(1)] | 452 nm | –

The next lines start with the values.

Row | λMAX VIS: λ of the band of the lowest energy in the field of the visible spectrum of the compound after exposure | λVIS1: λ of the band of highest energy in the field of the visible spectrum of the compound after exposure | Compound
6 | 548 nm | 429 nm | COc1ccc(C2(c3ccccc3)C=Cc3c4c(c5ccc(OC)cc5c3O2)-c2ccccc2CC4)cc1 (centres unmarked) [(C4), reference compound]
7 | 584 nm | 482 nm | COc1ccc2c3c(c4c(c2c1)OC(c1ccccc1)(c1ccc(N(C)C)cc1)C=C4)CCc1ccccc1-3 (centres unmarked) [(C3), reference compound]
8 | 561 nm | 443 nm | COc1ccc(C2(c3ccc(N(C)C)c(Br)c3)C=Cc3c4c(c5cc6c(cc5c3O2)OCC6)-c2ccccc2CC4)cc1 (centres unmarked) [(6)]
9 | 441 nm | – | COc1ccc(C2(c3ccccc3)C=Cc3c(c4c(c5cc(OC)c(OC)cc35)CCc3ccccc3-4)O2)cc1 (centres unmarked) [(C2), reference compound]
10 | 507 nm | – | COc1cc2c3c(c4c(c2cc1OC)CCc1ccccc1-4)OC(c1ccccc1)(c1ccc(N(C)C)cc1)C=C3 (centres unmarked) [(C1), reference compound]
11 | 446 nm | – | COc1cc2c3c(c4c(c2cc1OC)CCc1ccccc1-4)OC(c1ccccc1)(c1ccc(NC(C)=O)cc1)C=C3 (centres unmarked) [(C5), reference compound]
